Measured values from the OligoGym collection.
HELM strings list units from the 5' end as sugar, base in round brackets, then linkage (d deoxyribose, r ribose, m 2'-O-methyl, p phosphodiester). Strings are as the collection lists them; they lack the last nucleoside at the 3' end of the tested compound. [moe] = 2'-O-(2-methoxyethyl) (MOE); [sp] = phosphorothioate linkage; [m5C] = 5-methylcytosine

Target: APP
Test: mouse, dose not given
Settings: ASO

Row | Substance | 3 h FOB score [score 0-7]
1 | RNA1{[moe]([m5C])[sp].[moe](A)p.[moe]([m5C])p.[moe]([m5C])p.[moe](A)[sp].d(T)[sp].d([m5C])[sp].d(T)[sp].d(A)[sp].d(T)[sp].d(A)[sp].d(A)[sp].d(T)[sp].d(A)[sp].d([m5C])[sp].[moe]([m5C])p.[moe](A)p.[moe](T)[sp].[moe]([m5C])}$$$$ (last 3' nucleoside missing) | 0
2 | RNA1{[moe]([m5C])[sp].[moe](A)p.[moe]([m5C])p.[moe]([m5C])p.[moe](T)[sp].d([m5C])[sp].d(A)[sp].d(G)[sp].d([m5C])[sp].d([m5C])[sp].d(A)[sp].d([m5C])[sp].d(T)[sp].d(T)[sp].d([m5C])[sp].[moe](T)p.[moe](T)p.[moe]([m5C])[sp].[moe]([m5C])}$$$$ (last 3' nucleoside missing) | 0.5
3 | RNA1{[moe]([m5C])[sp].[moe](G)p.[moe](A)p.[moe](G)p.[moe](A)[sp].d(T)[sp].d(A)[sp].d([m5C])[sp].d(T)[sp].d(T)[sp].d(G)[sp].d(T)[sp].d([m5C])[sp].d(A)[sp].d(A)[sp].[moe]([m5C])p.[moe](G)p.[moe](G)[sp].[moe]([m5C])}$$$$ (last 3' nucleoside missing) | 2.33
4 | RNA1{[moe]([m5C])[sp].[moe](G)p.[moe](G)p.[moe](A)p.[moe]([m5C])[sp].d(T)[sp].d(T)[sp].d(T)[sp].d(T)[sp].d(T)[sp].d(T)[sp].d([m5C])[sp].d(T)[sp].d(T)[sp].d([m5C])[sp].[moe](T)p.[moe](T)p.[moe](G)[sp].[moe]([m5C])}$$$$ (last 3' nucleoside missing) | 0
5 | RNA1{[moe]([m5C])[sp].[moe](G)p.[moe](G)p.[moe]([m5C])p.[moe](A)[sp].d(G)[sp].d(T)[sp].d(T)[sp].d(T)[sp].d(A)[sp].d(A)[sp].d(A)[sp].d(A)[sp].d(T)[sp].d(T)[sp].[moe]([m5C])p.[moe](T)p.[moe]([m5C])[sp].[moe](T)}$$$$ (last 3' nucleoside missing) | 0
6 | RNA1{[moe]([m5C])[sp].[moe](G)p.[moe](T)p.[moe](G)p.[moe](T)[sp].d(G)[sp].d(T)[sp].d(A)[sp].d(T)[sp].d([m5C])[sp].d([m5C])[sp].d(T)[sp].d([m5C])[sp].d(T)[sp].d(T)[sp].[moe](A)p.[moe](A)p.[moe](T)[sp].[moe](T)}$$$$ (last 3' nucleoside missing) | 1
7 | RNA1{[moe]([m5C])[sp].[moe](T)[sp].[moe](T)p.[moe]([m5C])p.[moe]([m5C])[sp].d([m5C])[sp].d(A)[sp].d(T)[sp].d(T)[sp].d([m5C])[sp].d(T)[sp].d([m5C])[sp].d(T)[sp].d([m5C])[sp].d(A)[sp].[moe](T)p.[moe](G)p.[moe](A)[sp].[moe]([m5C])}$$$$ (last 3' nucleoside missing) | 1
8 | RNA1{[moe]([m5C])[sp].[moe](T)p.[moe](A)p.[moe]([m5C])p.[moe]([m5C])[sp].d([m5C])[sp].d([m5C])[sp].d(T)[sp].d([m5C])[sp].d(G)[sp].d(G)[sp].d(A)[sp].d(A)[sp].d([m5C])[sp].d(T)[sp].[moe](T)p.[moe](G)p.[moe](T)[sp].[moe]([m5C])}$$$$ (last 3' nucleoside missing) | 0.75
9 | RNA1{[moe]([m5C])[sp].[moe](T)p.[moe](G)p.[moe](G)p.[moe](G)[sp].d(T)[sp].d(A)[sp].d([m5C])[sp].d(A)[sp].d(T)[sp].d(A)[sp].d(A)[sp].d(T)[sp].d(A)[sp].d([m5C])[sp].[moe](T)p.[moe](A)p.[moe](G)[sp].[moe](G)}$$$$ (last 3' nucleoside missing) | 0
10 | RNA1{[moe]([m5C])[sp].[moe](T)p.[moe](T)p.[moe](A)p.[moe]([m5C])[sp].d(A)[sp].d(A)[sp].d(A)[sp].d([m5C])[sp].d(T)[sp].d([m5C])[sp].d(A)[sp].d([m5C])[sp].d([m5C])[sp].d(A)[sp].[moe](A)p.[moe]([m5C])p.[moe](T)[sp].[moe](A)}$$$$ (last 3' nucleoside missing) | 0
11 | RNA1{[moe]([m5C])[sp].[moe](T)p.[moe](T)p.[moe](A)p.[moe]([m5C])[sp].d(A)[sp].d(T)[sp].d([m5C])[sp].d(A)[sp].d(T)[sp].d(T)[sp].d(T)[sp].d(T)[sp].d([m5C])[sp].d(T)[sp].[moe](T)p.[moe](G)p.[moe]([m5C])[sp].[moe](A)}$$$$ (last 3' nucleoside missing) | 1
12 | RNA1{[moe]([m5C])[sp].[moe](T)p.[moe](T)p.[moe](T)p.[moe](T)[sp].d(G)[sp].d(T)[sp].d(A)[sp].d(T)[sp].d([m5C])[sp].d(A)[sp].d(T)[sp].d(A)[sp].d(A)[sp].d(A)[sp].[moe](T)p.[moe](G)p.[moe](A)[sp].[moe](A)}$$$$ (last 3' nucleoside missing) | 0.5
13 | RNA1{[moe]([m5C])[sp].[moe](T)p.[moe](T)p.[moe](T)p.[moe]([m5C])[sp].d(T)[sp].d(A)[sp].d(T)[sp].d(T)[sp].d(T)[sp].d(A)[sp].d([m5C])[sp].d(T)[sp].d([m5C])[sp].d(A)[sp].[moe]([m5C])p.[moe](A)p.[moe](G)[sp].[moe]([m5C])}$$$$ (last 3' nucleoside missing) | 0
14 | RNA1{[moe]([m5C])[sp].[moe](T)p.[moe](T)p.[moe]([m5C])p.[moe](T)[sp].d(G)[sp].d([m5C])[sp].d(A)[sp].d(A)[sp].d(A)[sp].d(G)[sp].d(A)[sp].d(A)[sp].d([m5C])[sp].d(A)[sp].[moe]([m5C])p.[moe]([m5C])p.[moe](A)[sp].[moe](A)}$$$$ (last 3' nucleoside missing) | 0.5
15 | RNA1{[moe]([m5C])[sp].[moe](T)p.[moe](T)p.[moe]([m5C])p.[moe](T)[sp].d(T)[sp].d(A)[sp].d(T)[sp].d([m5C])[sp].d(A)[sp].d(G)[sp].d([m5C])[sp].d(T)[sp].d(T)[sp].d(T)[sp].[moe](A)p.[moe](G)p.[moe](G)[sp].[moe]([m5C])}$$$$ (last 3' nucleoside missing) | 1
16 | RNA1{[moe]([m5C])[sp].[moe](T)p.[moe](T)p.[moe]([m5C])p.[moe]([m5C])[sp].d([m5C])[sp].d(A)[sp].d(T)[sp].d(T)[sp].d([m5C])[sp].d(T)[sp].d([m5C])[sp].d(T)[sp].d([m5C])[sp].d(A)[sp].[moe](T)p.[moe](G)p.[moe](A)[sp].[moe]([m5C])}$$$$ (last 3' nucleoside missing) | 0.25
17 | RNA1{[moe]([m5C])[sp].[moe](T)p.[moe](T)p.[moe]([m5C])p.[moe]([m5C])p.[moe]([m5C])p.d(A)[sp].d(T)[sp].d(T)[sp].d([m5C])[sp].d(T)[sp].d([m5C])[sp].d(T)[sp].d([m5C])[sp].d(A)[sp].d(T)[sp].[moe](G)p.[moe](A)[sp].[moe]([m5C])}$$$$ (last 3' nucleoside missing) | 0
18 | RNA1{[moe]([m5C])[sp].[moe](T)p.[moe]([m5C])p.[moe](T)p.[moe](T)[sp].d(G)[sp].d(T)[sp].d(T)[sp].d(A)[sp].d(A)[sp].d(A)[sp].d(T)[sp].d([m5C])[sp].d(A)[sp].d(T)[sp].[moe](G)p.[moe](G)p.[moe]([m5C])[sp].[moe](A)}$$$$ (last 3' nucleoside missing) | 0
19 | RNA1{[moe]([m5C])[sp].[moe](T)p.[moe]([m5C])p.[moe](T)p.[moe]([m5C])[sp].d(A)[sp].d(T)[sp].d(A)[sp].d(G)[sp].d(T)[sp].d([m5C])[sp].d(T)[sp].d(T)[sp].d(A)[sp].d(A)[sp].[moe](T)p.[moe](T)p.[moe]([m5C])[sp].[moe]([m5C])}$$$$ (last 3' nucleoside missing) | 0.25
20 | RNA1{[moe]([m5C])[sp].[moe](T)p.[moe]([m5C])p.[moe](T)p.[moe]([m5C])p.[moe](A)[sp].d(T)[sp].d(A)[sp].d(G)[sp].d(T)[sp].d([m5C])[sp].d(T)[sp].d(T)[sp].d(A)[sp].d(A)[sp].d(T)[sp].[moe](T)p.[moe]([m5C])[sp].[moe]([m5C])}$$$$ (last 3' nucleoside missing) | 0.75
21 | RNA1{[moe]([m5C])[sp].[moe](T)p.[moe]([m5C])p.[moe]([m5C])p.[moe](A)[sp].d(A)[sp].d(T)[sp].d(T)[sp].d(T)[sp].d(T)[sp].d(A)[sp].d(A)[sp].d([m5C])[sp].d(T)[sp].d(T)[sp].[moe](G)p.[moe]([m5C])p.[moe](A)[sp].[moe]([m5C])}$$$$ (last 3' nucleoside missing) | 2.75
22 | RNA1{[moe]([m5C])[sp].[moe](T)p.[moe]([m5C])p.[moe]([m5C])p.[moe](A)p.[moe](A)[sp].d(T)[sp].d(T)[sp].d(T)[sp].d(T)[sp].d(A)[sp].d(A)[sp].d([m5C])[sp].d(T)[sp].d(T)[sp].d(G)[sp].[moe]([m5C])p.[moe](A)[sp].[moe]([m5C])}$$$$ (last 3' nucleoside missing) | 0
23 | RNA1{[moe]([m5C])[sp].[moe]([m5C])[sp].[moe]([m5C])p.[moe](A)p.[moe]([m5C])[sp].d(T)[sp].d(T)[sp].d([m5C])[sp].d([m5C])[sp].d([m5C])[sp].d(A)[sp].d(T)[sp].d(T)[sp].d([m5C])[sp].d(T)[sp].[moe](G)p.[moe](G)p.[moe](A)[sp].[moe]([m5C])}$$$$ (last 3' nucleoside missing) | 0
24 | RNA1{[moe]([m5C])[sp].[moe]([m5C])p.[moe](A)p.[moe](A)p.[moe](A)[sp].d(G)[sp].d(A)[sp].d(T)[sp].d(T)[sp].d([m5C])[sp].d([m5C])[sp].d(A)[sp].d([m5C])[sp].d(T)[sp].d(T)[sp].[moe](T)p.[moe]([m5C])p.[moe](T)[sp].[moe]([m5C])}$$$$ (last 3' nucleoside missing) | 0
25 | RNA1{[moe]([m5C])[sp].[moe]([m5C])p.[moe](A)p.[moe](A)p.[moe](G)[sp].d(T)[sp].d(A)[sp].d(T)[sp].d(T)[sp].d(T)[sp].d(T)[sp].d([m5C])[sp].d([m5C])[sp].d(T)[sp].d(G)[sp].[moe]([m5C])p.[moe](A)p.[moe](T)[sp].[moe]([m5C])}$$$$ (last 3' nucleoside missing) | 0
